# According to the kinase profiling compilation of Christmann-Franck et al. (2016):
# Key:
# Test in all cases: KINOMEscan competition binding
# Conditions in all cases: compound 10.0 µM
# [1] = test system: EIF2AK4 KD2 (human), Q9P2K8 [S808G]
# [2] = test system: EGFR (human), P00533 [P753S; 747-752 del]
# [3] = test system: FLT3 (human), P36888 [N841I]
# [4] = test system: FLT3 (human), P36888 [K663Q]
# [5] = test system: ABL1 (human), P00519 [M351T]
# [6] = test system: KIT (human), P10721 [D816V]
# Chain of KIT (human), P10721 [D816V] (P10721 whole entry D816V, looked up): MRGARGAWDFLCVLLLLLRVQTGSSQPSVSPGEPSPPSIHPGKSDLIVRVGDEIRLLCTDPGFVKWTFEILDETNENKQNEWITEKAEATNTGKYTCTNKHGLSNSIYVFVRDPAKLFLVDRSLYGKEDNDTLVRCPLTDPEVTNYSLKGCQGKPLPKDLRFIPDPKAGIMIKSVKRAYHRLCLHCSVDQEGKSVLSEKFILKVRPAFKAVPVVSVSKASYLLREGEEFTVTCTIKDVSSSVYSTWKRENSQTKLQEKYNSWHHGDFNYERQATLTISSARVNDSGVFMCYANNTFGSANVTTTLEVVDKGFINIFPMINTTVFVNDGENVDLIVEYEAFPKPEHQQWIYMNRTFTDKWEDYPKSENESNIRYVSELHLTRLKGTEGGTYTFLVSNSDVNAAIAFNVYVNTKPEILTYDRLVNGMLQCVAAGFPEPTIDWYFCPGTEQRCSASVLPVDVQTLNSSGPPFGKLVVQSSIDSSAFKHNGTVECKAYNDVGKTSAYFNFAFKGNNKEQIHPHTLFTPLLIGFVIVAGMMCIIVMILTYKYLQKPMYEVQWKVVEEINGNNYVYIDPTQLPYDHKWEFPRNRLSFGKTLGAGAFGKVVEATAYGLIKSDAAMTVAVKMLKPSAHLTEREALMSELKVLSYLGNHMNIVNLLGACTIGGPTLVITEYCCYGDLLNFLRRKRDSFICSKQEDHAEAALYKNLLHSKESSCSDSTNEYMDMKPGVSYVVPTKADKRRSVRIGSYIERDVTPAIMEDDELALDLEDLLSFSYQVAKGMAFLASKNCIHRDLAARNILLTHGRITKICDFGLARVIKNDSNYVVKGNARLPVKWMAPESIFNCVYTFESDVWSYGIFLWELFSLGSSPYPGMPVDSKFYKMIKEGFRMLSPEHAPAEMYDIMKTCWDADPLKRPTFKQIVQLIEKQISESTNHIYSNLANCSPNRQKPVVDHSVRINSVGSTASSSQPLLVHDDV
# [7] = test system: KIT (human), P10721 [V559D]
# Chain of KIT (human), P10721 [V559D] (P10721 whole entry V559D, looked up): as the sequence (P10721 whole entry D816V, looked up) above, with V559D, V816D counted along it
# [8] = test system: ABL1 (human), P00519 [Q252H]
# [9] = test system: EGFR (human), P00533 [L861Q]
# [10] = test system: PIK3CA (human), P42336 [E545K]
# Chain of PIK3CA (human), P42336 [E545K] (P42336 whole entry E545K, looked up): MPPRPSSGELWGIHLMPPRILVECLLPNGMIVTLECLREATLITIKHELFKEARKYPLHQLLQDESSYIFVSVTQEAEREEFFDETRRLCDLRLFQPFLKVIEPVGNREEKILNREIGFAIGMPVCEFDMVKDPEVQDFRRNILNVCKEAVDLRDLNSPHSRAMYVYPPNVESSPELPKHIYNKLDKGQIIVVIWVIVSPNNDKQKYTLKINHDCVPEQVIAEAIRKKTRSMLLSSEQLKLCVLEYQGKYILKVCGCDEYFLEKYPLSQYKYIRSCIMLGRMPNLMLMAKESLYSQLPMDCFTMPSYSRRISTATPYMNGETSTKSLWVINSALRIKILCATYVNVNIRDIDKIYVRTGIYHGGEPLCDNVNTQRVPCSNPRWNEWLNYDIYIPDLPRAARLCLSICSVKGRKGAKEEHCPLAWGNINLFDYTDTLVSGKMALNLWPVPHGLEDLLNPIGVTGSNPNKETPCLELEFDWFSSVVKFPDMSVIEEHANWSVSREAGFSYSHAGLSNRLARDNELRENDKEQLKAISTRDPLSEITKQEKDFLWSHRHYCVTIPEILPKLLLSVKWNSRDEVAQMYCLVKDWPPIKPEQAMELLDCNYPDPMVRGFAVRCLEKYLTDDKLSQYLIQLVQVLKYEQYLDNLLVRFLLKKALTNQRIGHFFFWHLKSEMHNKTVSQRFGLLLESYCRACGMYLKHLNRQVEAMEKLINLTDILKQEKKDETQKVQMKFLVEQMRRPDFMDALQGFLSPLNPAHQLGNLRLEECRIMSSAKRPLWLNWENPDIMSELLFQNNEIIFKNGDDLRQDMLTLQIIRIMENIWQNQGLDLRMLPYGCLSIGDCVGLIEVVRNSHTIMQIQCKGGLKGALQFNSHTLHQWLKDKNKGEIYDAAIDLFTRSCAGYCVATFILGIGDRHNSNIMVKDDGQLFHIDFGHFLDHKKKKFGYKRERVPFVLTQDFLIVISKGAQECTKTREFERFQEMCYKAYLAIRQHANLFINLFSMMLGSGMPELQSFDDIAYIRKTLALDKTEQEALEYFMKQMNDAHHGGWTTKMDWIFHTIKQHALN
# [11] = test system: EGFR (human), P00533 [G719S]
# [12] = test system: FLT3 (human), P36888 [ITD]
# [13] = test system: ABL1 (human), P00519 [E255K]
# [14] = test system: KIT (human), P10721 [V559D/T670I]
# Chain of KIT (human), P10721 [V559D/T670I] (P10721 whole entry V559D/T670I, looked up): as the sequence (P10721 whole entry D816V, looked up) above, with V559D, T670I, V816D counted along it
# [15] = test system: ABL1 (human), P00519 [T315I]
# [16] = test system: EGFR (human), P00533 [746-750 del]
# [17] = test system: PIK3CA (human), P42336 [E545A]
# Chain of PIK3CA (human), P42336 [E545A] (P42336 whole entry E545A, looked up): as the sequence (P42336 whole entry E545K, looked up) above, with K545A counted along it
# [18] = test system: PIK3CA (human), P42336 [Q546K]
# Chain of PIK3CA (human), P42336 [Q546K] (P42336 whole entry Q546K, looked up): as the sequence (P42336 whole entry E545K, looked up) above, with K545E, Q546K counted along it
# [19] = test system: PIK3CA (human), P42336 [H1047Y]
# Chain of PIK3CA (human), P42336 [H1047Y] (P42336 whole entry H1047Y, looked up): as the sequence (P42336 whole entry E545K, looked up) above, with K545E, H1047Y counted along it
# [20] = test system: PIK3CA (human), P42336 [C420R]
# Chain of PIK3CA (human), P42336 [C420R] (P42336 whole entry C420R, looked up): as the sequence (P42336 whole entry E545K, looked up) above, with C420R, K545E counted along it
# Chain of EIF2AK4 KD2 (human), Q9P2K8 [S808G] (Q9P2K8 whole entry S808G, looked up): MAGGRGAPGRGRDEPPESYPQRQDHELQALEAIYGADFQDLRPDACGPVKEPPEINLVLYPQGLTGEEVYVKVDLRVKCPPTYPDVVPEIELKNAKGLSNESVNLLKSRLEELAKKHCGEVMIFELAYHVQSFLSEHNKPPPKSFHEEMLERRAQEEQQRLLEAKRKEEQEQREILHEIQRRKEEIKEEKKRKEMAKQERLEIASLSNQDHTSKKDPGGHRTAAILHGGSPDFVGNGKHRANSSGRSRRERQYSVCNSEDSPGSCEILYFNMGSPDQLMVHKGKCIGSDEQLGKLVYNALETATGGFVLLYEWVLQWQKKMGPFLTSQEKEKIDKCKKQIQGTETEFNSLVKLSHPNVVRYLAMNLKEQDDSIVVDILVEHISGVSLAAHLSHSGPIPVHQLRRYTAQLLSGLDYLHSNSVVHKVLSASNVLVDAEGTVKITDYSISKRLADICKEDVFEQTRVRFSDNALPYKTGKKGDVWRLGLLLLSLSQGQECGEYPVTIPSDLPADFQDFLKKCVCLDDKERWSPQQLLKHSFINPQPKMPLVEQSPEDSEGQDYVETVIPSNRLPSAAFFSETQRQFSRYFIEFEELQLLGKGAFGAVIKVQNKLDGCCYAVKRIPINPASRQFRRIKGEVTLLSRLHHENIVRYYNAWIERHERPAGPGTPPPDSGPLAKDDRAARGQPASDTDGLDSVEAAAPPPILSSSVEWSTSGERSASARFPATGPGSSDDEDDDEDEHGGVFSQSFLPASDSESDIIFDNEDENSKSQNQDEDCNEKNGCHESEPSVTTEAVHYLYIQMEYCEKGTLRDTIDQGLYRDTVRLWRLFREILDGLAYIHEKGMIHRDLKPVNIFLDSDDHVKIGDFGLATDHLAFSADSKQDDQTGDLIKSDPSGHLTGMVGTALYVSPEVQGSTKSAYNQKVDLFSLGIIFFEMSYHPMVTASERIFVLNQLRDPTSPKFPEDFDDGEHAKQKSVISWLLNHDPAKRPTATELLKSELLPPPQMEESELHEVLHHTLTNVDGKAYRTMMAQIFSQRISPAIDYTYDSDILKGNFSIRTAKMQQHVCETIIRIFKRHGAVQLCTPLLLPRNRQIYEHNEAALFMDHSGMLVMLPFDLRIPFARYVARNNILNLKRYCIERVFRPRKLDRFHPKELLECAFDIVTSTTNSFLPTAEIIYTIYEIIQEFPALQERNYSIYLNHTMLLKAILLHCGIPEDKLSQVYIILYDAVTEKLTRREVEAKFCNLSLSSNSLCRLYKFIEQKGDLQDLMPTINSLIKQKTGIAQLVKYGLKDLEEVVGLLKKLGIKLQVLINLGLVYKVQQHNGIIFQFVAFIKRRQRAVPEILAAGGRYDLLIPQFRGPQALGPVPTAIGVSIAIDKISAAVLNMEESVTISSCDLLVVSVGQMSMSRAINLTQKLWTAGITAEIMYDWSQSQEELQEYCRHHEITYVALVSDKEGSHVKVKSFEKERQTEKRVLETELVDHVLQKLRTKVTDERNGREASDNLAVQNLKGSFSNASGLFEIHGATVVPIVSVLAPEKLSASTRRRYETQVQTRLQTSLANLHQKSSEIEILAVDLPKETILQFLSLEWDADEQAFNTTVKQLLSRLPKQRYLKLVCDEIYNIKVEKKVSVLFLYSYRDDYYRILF
"kinase still bound, per cent of control [1] [%]","kinase still bound, per cent of control [2] [%]","kinase still bound, per cent of control [3] [%]","kinase still bound, per cent of control [4] [%]","kinase still bound, per cent of control [5] [%]","kinase still bound, per cent of control [6] [%]","kinase still bound, per cent of control [7] [%]","kinase still bound, per cent of control [8] [%]","kinase still bound, per cent of control [9] [%]","kinase still bound, per cent of control [10] [%]","kinase still bound, per cent of control [11] [%]","kinase still bound, per cent of control [12] [%]","kinase still bound, per cent of control [13] [%]","kinase still bound, per cent of control [14] [%]","kinase still bound, per cent of control [15] [%]","kinase still bound, per cent of control [16] [%]","kinase still bound, per cent of control [17] [%]","kinase still bound, per cent of control [18] [%]","kinase still bound, per cent of control [19] [%]","kinase still bound, per cent of control [20] [%]",Structure (SMILES)
100,2.9,13,100,100,24,100,100,0.3,100,21,20,100,100,100,0,–,–,–,–,COc1cc(N2CCC(C(N)=O)CC2)ccc1Nc1nc(N)c(Cl)c(Nc2ccccc2S(=O)(=O)C(C)C)n1
9.5,100,100,100,100,100,6.1,100,100,100,100,100,100,100,100,100,100,100,100,100,CCN(CC)CCCCNc1ncc2c(n1)N(C)C(=O)N(c1c(Cl)c(OC)cc(OC)c1Cl)C2
100,100,100,100,11,27,0.15,13,100,100,100,100,18,100,100,100,100,100,100,100,Cc1cn(-c2cc(C(=O)Nc3ccc(C)c(NC(=O)c4ccno4)c3)cc(C(F)(F)F)c2)cn1
100,100,16,100,100,100,100,100,100,100,100,100,100,100,19,100,–,–,–,–,COc1cc(C)c(Sc2cnc(NC(=O)c3ccc(CNC(C)C(C)C)cc3)s2)cc1C(=O)N1CCN(C(C)=O)CC1 (stereo unspecified)
100,–,100,–,100,100,100,100,–,100,–,100,100,100,100,–,–,–,–,–,CCN(CC)CCCCNc1ncc2cc(-c3cc(OC)cc(OC)c3)c(NC(=O)NC(C)(C)C)nc2n1
100,2.5,29,–,1.4,0.75,0.5,1.8,1,100,18,100,7.2,3.8,0.45,6.1,–,–,–,–,COc1ccc(N(C(=O)Oc2cc(C(=O)Nc3cccc(C(F)(F)F)c3)ccc2C)c2ccnc(Nc3ccc(N4CCN(C)CC4)cc3)n2)c(OC)c1
100,100,0.35,2.6,7.9,4.5,18,11,100,4.7,100,0.25,20,22,0,100,–,–,–,–,CNC(=O)c1ccc(Nc2cc(Nc3ccccc3S(=O)(=O)C(C)C)c3cc[nH]c3n2)nc1
1.5,0.45,8.4,21,16,7.2,0.1,14,0.1,100,0.15,100,100,29,6.4,0.6,–,–,–,–,C=CC(=O)Nc1ccc(CN(C(=O)Nc2c(Cl)c(OC)cc(OC)c2Cl)c2cc(Nc3ccc(N4CCN(C)CC4)cc3)ncn2)cc1
100,100,100,100,100,100,100,100,100,0.3,100,100,100,100,100,100,0.35,0.35,14,–,CS(=O)(=O)N1CCN(Cc2cc3nc(-c4cccc5[nH]ncc45)nc(N4CCOCC4)c3s2)CC1
100,100,100,100,100,100,100,100,100,100,100,100,100,100,100,100,100,100,100,100,COc1cc(N2CCN(C)CC2)ccc1Nc1ncc2c(n1)N(C)c1ccccc1C(=O)N2C

Structure (SMILES),"kinase still bound, per cent of control [1] [%]","kinase still bound, per cent of control [2] [%]","kinase still bound, per cent of control [3] [%]","kinase still bound, per cent of control [4] [%]","kinase still bound, per cent of control [5] [%]","kinase still bound, per cent of control [6] [%]","kinase still bound, per cent of control [7] [%]","kinase still bound, per cent of control [8] [%]","kinase still bound, per cent of control [9] [%]","kinase still bound, per cent of control [10] [%]","kinase still bound, per cent of control [11] [%]","kinase still bound, per cent of control [12] [%]","kinase still bound, per cent of control [13] [%]","kinase still bound, per cent of control [14] [%]","kinase still bound, per cent of control [15] [%]","kinase still bound, per cent of control [16] [%]","kinase still bound, per cent of control [17] [%]","kinase still bound, per cent of control [18] [%]","kinase still bound, per cent of control [19] [%]","kinase still bound, per cent of control [20] [%]"
Cc1n[nH]c2ccc(-c3cncc(OC[C@@H](N)Cc4c[nH]c5ccccc45)c3)cc12,100,–,0.1,3.8,100,1.1,100,100,–,100,–,0.1,100,100,100,–,–,–,–,–
